As usually defined, the pKi is −log10 of the Ki, conventionally taken in molar units.

From patent US11584714B2 (priority 2018, dated 2023) come the findings set out here.

pKi: −log10 of the molar value. Counter-ions that a name gives are not always drawn.

Chain of MASP-2 (CCP1-CCP2-SP) (O00187 445-686): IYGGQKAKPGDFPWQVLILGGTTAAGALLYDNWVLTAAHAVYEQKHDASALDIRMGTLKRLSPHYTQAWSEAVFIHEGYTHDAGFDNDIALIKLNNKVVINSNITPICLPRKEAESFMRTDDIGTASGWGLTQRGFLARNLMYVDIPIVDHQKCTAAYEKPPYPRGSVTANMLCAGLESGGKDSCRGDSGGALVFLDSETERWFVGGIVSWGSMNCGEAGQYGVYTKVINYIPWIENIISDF

One test concerns the target MASP-2 (CCP1-CCP2-SP) (Homo sapiens (Human), UniProt O00187). Description: biochemical. Format: biochemical.
Details: not given
`N=C(N)c1ccc2[nH]c(-c3nc4ccccc4[nH]3)nc2c1` [compound 2009, 1H,1′H-[2,2′-bibenzo[d]imidazole-5-carboximidamidedihydrochloride] showed a pKi of less than 4.60.

Staying with this test, now noted: +Zn; read-out: MASP-2 Ki.
Turning to `N=C(N)c1ccc2[nH]c(-c3nc4ccccc4[nH]3)nc2c1` [compound 2009, 1H,1′H-[2,2′-bibenzo[d]imidazole-5-carboximidamidedihydrochloride], the pKi is more than 6.30.

Still in this test, the particulars now being: MASP-2 inhibition versus thrombin.
For the compound `C[C@H](NC(=O)[C@H](N)CCc1ccccc1)C(=O)NCc1ccc(C(=N)N)cc1` [compound 1024], the “MASP-2 vs. thrombin selectivity” value is given as “** (5.0 to 25-fold)”. In the case of `C[C@H](NC(=O)[C@H](N)CCc1cccc(Cl)c1)C(=O)NCc1ccc(C(=N)N)cc1` [compound 1081], the “MASP-2 vs. thrombin selectivity” value is “** (5.0 to 25-fold)”.

On to `C[C@H](NC(=O)[C@H]1Cc2c([nH]c3ccccc23)CN1)C(=O)NCc1ccc(C(=N)N)cc1` [compound 1097], for which the “MASP-2 vs. thrombin selectivity” value was “*** (25 to 100-fold)”. With `C[C@H](NC(=O)[C@H](N)CCc1cc(Cl)cc(Cl)c1)C(=O)NCc1ccc(C(=N)N)cc1` [compound 1118], the “MASP-2 vs. thrombin selectivity” value was “** (5.0 to 25-fold)”. `C[C@H](NC(=O)[C@@H](CCc1ccccc1)NCc1ccc(C(=O)N2CCOCC2)cc1)C(=O)NCc1ccc(C(=N)N)cc1` [compound 1153]: the “MASP-2 vs. thrombin selectivity” value is recorded as “**** (>100-fold)”.

The same test, now with this note: read-out: MASP-2 Ki.
For `C[C@H](NC(=O)[C@H](N)CCc1ccccc1)C(=O)NCc1cccc(Cl)c1` [compound 1021], the pKi is more than 5.00.

Turning to `C[C@H](NC(=O)[C@H]1C=C(c2ccccc2)CN1)C(=O)NCc1ccc(C(=N)N)cc1` [compound 1032], the pKi is more than 6.30. As to `N=C(N)c1ccc(CNC(=O)C(CF)NC(=O)[C@H](N)CCc2ccccc2)cc1` (stereo partly drawn) [compound 1050, (2R)-2-Amino-N-(1-((4-carbamimidoylbenzyl)amino)-3-fluoro-1-oxopropan-2-yl)-4-phenylbutanamide Dihydrochloride], the pKi was more than 6.30. Consider `N[C@H](CCc1ccccc1)C(=O)N1CCC[C@H]1C(=O)NCc1cc(Cl)ccc1O` [compound 1079, (S)-1-((R)-2-Amino-4-phenylbutanoyl)-N-(5-chloro-2-hydroxybenzyl)pyrrolidine-2-carboxamide], for which the pKi was more than 6.30. Consider `C[C@H](NC(=O)[C@H](N)CCc1ccc(C(F)(F)F)cc1)C(=O)NCc1ccc(C(=N)N)cc1` [compound 1119, (R)-2-Amino-N—((S)-1-((4-carbamimidoylbenzyl)amino)-1-oxopropan-2-yl)-4-(4-(trifluoromethyl)phenyl)butanamide Dihydrochloride], for which the pKi is more than 6.30. Turning to `C[C@H](NC(=O)[C@@H](CCc1ccccc1)NCc1ccc(N2CCNCC2)cc1)C(=O)NCc1ccc(C(=N)N)cc1` [compound 1148, (R)—N—((S)-1-((4-Carbamimidoylbenzyl)amino)-1-oxopropan-2-yl)-4-phenyl-2-((4-(piperazin-1-yl)benzyl)amino)butanamide], the pKi was more than 6.30. The same measure, in the same setting: the figure for `Cc1ccc(-c2c[nH]c(C(=O)N[C@@H](C)C(=O)NCc3ccc(C(=N)N)cc3)c2)cc1F` [compound 1235, (S)—N-(1-((4-Carbamimidoylbenzyl)amino)-1-oxopropan-2-yl)-4-(3-fluoro-4-methylphenyl)-1H-pyrrole-2-carboxamide] is more than 6.30.

Still in this test, the particulars now being: selectivity for MASP-2 inhibition versus thrombin.
For `Cc1ccc(-c2c[nH]c(C(=O)N[C@@H](C)C(=O)NCc3ccc(C(=N)N)cc3)c2)cc1F` [compound 1235, (S)—N-(1-((4-Carbamimidoylbenzyl)amino)-1-oxopropan-2-yl)-4-(3-fluoro-4-methylphenyl)-1H-pyrrole-2-carboxamide], the “MASP-2 vs. thrombin selectivity” value is recorded as “*** (≥25 to <100-fold)”.

With `C[C@H](NC(=O)[C@H](N)CCc1ccccc1)C(=O)NCc1cc(Cl)ccc1C#N` [compound 1313, Trifluoroacetate salt], the “MASP-2 vs. thrombin selectivity” value was “* (≥1.0 to <5.0-fold)”. In the case of `COc1cc(C[C@@H]2CN[C@@H](C(=O)N[C@@H](C)C(=O)NCc3cc(Cl)ccc3-n3cnnn3)C2)cc(OC)c1` [compound 1419, (2R,4S)—N—((S)-1-((5-Chloro-2-(JH-tetrazol-1-yl)benzyl)amino)-1-oxopropan-2-yl)-4-(3,5-dimethoxybenzyl)pyrrolidine-2-carboxamide Trifluoroacetate salt], the “MASP-2 vs. thrombin selectivity” value is given as “* (≥1.0 to <5.0-fold)”.

The target of a further test is human α-thrombin (Homo sapiens (Human), UniProt P00734). As to the kind of experiment: Enzymatic assay for thrombin (Boc-VPR-AMC substrate). Format: biochemical. Particulars: Zn/EDTA condition not given; read-out: Thrombin Ki.
`N=C(N)c1ccc(CNC(=O)Cn2c(=O)n(Cc3ccccc3)c(=O)c3ccc(C(N)=O)cc32)cc1` [compound 2017, ((4-((2-(3-Benzyl-7-carbamoyl-2,4-dioxo-3,4-dihydroquinazolin-1(2H)-yl)acetamido)methyl)phenyl)(imino)methyl)-λ^5-azaneyl Acetate]: the pKi is less than 4.60. Turning to `CNC(=O)c1ccc2c(=O)n(Cc3ccccc3)c(=O)n(CC(=O)NCc3ccc(C(=N)N)cc3)c2c1` [compound 2018, 3-Benzyl-1-(2-((4-carbamimidoylbenzyl)amino)-2-oxoethyl)-N-methyl-2,4-dioxo-1,2,3,4-tetrahydroquinazoline-7-carboxamide], the pKi is less than 4.60. In the case of `CCCCCn1c(=O)c2ccccc2n(CC(=O)Nc2ccc(NC(C)=O)cc2)c1=O` [compound 2019], the pKi is less than 4.60.

On to `CCCCn1c(=O)c2ccccc2n(CC(=O)Nc2ccc(NC(C)=O)cc2)c1=O` [compound 2020], for which the pKi is less than 4.60.

The test is the same for the next values; noted with them: read-out: Thrombin Ki.
Regarding `N=C(N)c1ccc(CNC(=O)[C@@H]2CCN2C(=O)[C@H](N)C2CC2)cc1` [compound 1002, (S)-1-((R)-2-Amino-2-cyclopropylacetyl)-N-(4-carbamimidoylbenzyl)azetidine-2-carboxamide], the pKi is more than 6.30.

As to `N=C(N)c1ccc(CNC(=O)[C@@H]2CCN2C(=O)[C@H]2CCCN2)cc1` [compound 1003], the pKi was more than 6.30. Turning to `N=C(N)NCCCNC(=O)[C@@H]1CCN1C(=O)[C@H](N)C1CCCCC1` [compound 1004, (S)-1-((R)-2-Amino-2-cyclohexylacetyl)-N-(3-guanidinopropyl)azetidine-2-carboxamide Hydrochloride], the pKi is more than 6.30. With `CC(C)(C)[C@@H](N)C(=O)N1CC[C@H]1C(=O)NCc1ccc(C(=N)N)cc1` [compound 1005], the pKi is more than 6.30. For `C[C@H](NC(=O)[C@H](N)CCc1ccccc1)C(=O)NCCCCNC(=N)N` [compound 1010], the pKi was less than 4.60. On to `C[C@H](NC(=O)[C@H]1C[C@H](c2ccccc2)CN1)C(=O)NCc1ccc(N)nc1` [compound 1012], for which the pKi was less than 4.60. Regarding `C[C@H](NC(=O)[C@H](N)CCc1ccccc1)C(=O)NCc1ccc(CN)cc1` [compound 1014], the pKi is less than 4.60. On the same count and under the same terms, the figure for `N=C(N)c1ccc(CNC(=O)[C@@H]2CCN2C(=O)[C@H]2CC3CCCCC3N2)cc1` (some centres unmarked) [compound 1026] is more than 6.30; for `N=C(N)c1ccc(CNC(=O)[C@@H]2CCN2C(=O)[C@H](NCC(=O)O)C2CC2)cc1` [compound 1028, ((R)-2-((S)-2-((4-carbamimidoylbenzyl)carbamoyl)azetidin-1-yl)-1-cyclopropyl-2-oxoethyl)glycine] it is more than 6.30. With `C[C@H](NC(=O)[C@H](N)CCc1ccc(F)cc1)C(=O)NCc1ccc(C(=N)N)cc1` [compound 1047], the pKi was more than 6.30.

Turning to `C[C@H](NC(=O)[C@H]1C[C@H](c2ccccc2)CN1)C(=O)NCc1ccc(C(=N)NO)cc1` [compound 1070], the pKi is less than 4.60. The same measure, in the same setting: as for `CC(=O)N[C@@H](C(=O)N1CC[C@H]1C(=O)NCc1ccc(C(=N)N)cc1)C1CCCCC1` [compound 1077], the figure is more than 6.30. `CN(CC(=O)NCc1ccc(C(=N)N)cc1)C(=O)[C@H](NCC(=O)O)C1CCCCC1` [compound 1096]: the pKi is more than 6.30. Consider `N=C(N)c1ccc(CNC(=O)[C@@H]2CCN2C(=O)[C@H](NCC(=O)O)c2ccccc2)cc1` [compound 1100], for which the negative logarithm of the Ki (pKi) was more than 6.30. `N=C(N)c1ccc(CNC(=O)[C@@H]2CCN2C(=O)[C@H](NCC(N)=O)C2CCCCC2)cc1` [compound 1102, (S)-1-((R)-2-((2-amino-2-oxoethyl)amino)-2-cyclohexylacetyl)-N-(4-carbamimidoylbenzyl)azetidine-2-carboxamide]: the pKi is more than 6.30. For the compound `CC[C@H](NC(=O)[C@H](NCC(=O)O)C1CCCCC1)C(=O)NCc1ccc(C(=N)N)cc1` [compound 1106], the pKi is more than 6.30. As for `CC(C)N(CC(=O)NCc1ccc(C(=N)N)cc1)C(=O)[C@H](NCC(=O)O)C1CCCCC1` [compound 1117], the pKi is more than 6.30. For `CC(C)(C)OC(=O)N[C@@H](C(=O)N1CCC[C@H]1C(=O)NCc1ccc(C(=N)N)cc1)C1CCCCC1` [compound 1138], the pKi is more than 6.30. In the case of `N=C(N)c1ccc(CNC(=O)[C@H]2CCCCN2C(=O)[C@H](NCC(=O)O)C2CCCCC2)cc1` [compound 1154], the pKi was more than 6.30. Regarding `C[C@H](NC(=O)[C@H](N)CCc1ccccc1)C(=O)NCc1ccc(C(=N)NO)cc1` [compound 1157, (R)-2-Amino-N—((S)-1-((4-(N-hydroxycarbamimidoyl)benzyl)amino)-1-oxopropan-2-yl)-4-phenylbutanamide Dihydrochloride], the pKi was less than 4.60.

Take `N=C(N)c1ccc(CNC(=O)[C@@H]2CCN2C(=O)[C@H](N)CC2CCCCC2)cc1` [compound 1158]: the pKi was more than 6.30. Take `C[C@H](NC(=O)[C@H](N)CCc1ccccc1)C(=O)NCc1cc(Cl)ccc1Cl` [compound 1192]: the negative logarithm of the Ki (pKi) is less than 4.60.

As to `Cc1cc(N)nc(C)c1CNC(=O)[C@H](C)NC(=O)[C@H](N)CCc1ccccc1` [compound 1213], the pKi was less than 4.60. Same read-out and setting: as for `C[C@H](NC(=O)[C@H]1C[C@@H](c2ccccc2)CN1)C(=O)NCc1ccc(N)nc1` [compound 1255, (2R,4S)—N—((S)-1-(((6-Aminopyridin-3-yl)methyl)amino)-1-oxopropan-2-yl)-4-phenylpyrrolidine-2-carboxamide], the figure is less than 4.60; as for `Cc1nc(N)ccc1CNC(=O)[C@H](C)NC(=O)[C@H]1C[C@@H](c2cccc(CN)c2)CN1` [compound 1291, (2R,4S)—N—((S)-1-(((6-Amino-2-methylpyridin-3-yl)methyl)amino)-1-oxopropan-2-yl)-4-(3-(aminomethyl)phenyl)pyrrolidine-2-carboxamide], less than 4.60; as for `CCOC(=O)NC(=N)c1ccc(CNC(=O)[C@H](C)NC(=O)[C@H]2C[C@H](c3ccccc3)CN2)cc1` [compound 1294, Ethyl (imino(4-(((S)-2-((2R,4R)-4-phenylpyrrolidine-2-carboxamido)propanamido)methyl)phenyl)methyl)carbamate], less than 4.60.
